{"source": "ChEMBL document CHEMBL3872260", "about": "“Influence of chain length on the activity of tripeptidomimetic antagonists for CXC chemokine receptor 4 (CXCR4)” (Bioorg Med Chem, 2017)"}
{"target": "C-X-C chemokine receptor type 4 (Homo sapiens, UniProt P61073)", "sequence (P61073 whole entry)": "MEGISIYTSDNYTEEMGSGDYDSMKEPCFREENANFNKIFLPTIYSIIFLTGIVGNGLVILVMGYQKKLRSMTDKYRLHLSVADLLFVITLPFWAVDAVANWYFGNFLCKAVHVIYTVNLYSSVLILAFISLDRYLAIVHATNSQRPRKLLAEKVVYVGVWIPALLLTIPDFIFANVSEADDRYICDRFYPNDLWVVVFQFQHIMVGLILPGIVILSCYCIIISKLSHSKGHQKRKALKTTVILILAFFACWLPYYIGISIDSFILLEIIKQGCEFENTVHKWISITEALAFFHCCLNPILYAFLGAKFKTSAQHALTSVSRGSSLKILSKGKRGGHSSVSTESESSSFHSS", "experiment": "(§1) Antagonist activity at wild-type human CXCR4 expressed in COS7 cells co-expressing chimeric galphai assessed as inhibition of CXCL12-induced [3H]inositol-phosphate accumulation measured after 90 mins in presence of Myo-[2-3H]-inositol by scintillation proximity assay", "assay_type": "functional, cell-based, COS-7", "conditions": "read-out: EC50", "units": {"EC50": "µM"}}
{"smiles": "N=C(N)NCCC[C@H]1C(=O)N(CCc2ccc3ccccc3c2)C[C@@H]2SC[C@H](CCNC(=N)N)C(=O)N21", "EC50": "> 100"}
{"smiles": "N=C(N)NCCCC[C@H]1C(=O)N(CCc2ccc3ccccc3c2)C[C@H]2SC[C@@H](CCNC(=N)N)C(=O)N21", "EC50": "> 100"}
{"smiles": "N=C(N)NCCCC[C@@H]1CS[C@@H]2CN(CCc3ccc4ccccc4c3)C(=O)[C@H](CCCNC(=N)N)N2C1=O", "EC50": "> 100"}
{"smiles": "N=C(N)NCCCC[C@H]1C(=O)N(CCc2ccc3ccccc3c2)C[C@@H]2SC[C@H](CCNC(=N)N)C(=O)N21", "EC50": "> 100"}
{"smiles": "N=C(N)NCCCC[C@H]1C(=O)N(CCc2ccc3ccccc3c2)C[C@H]2SC[C@@H](CCCNC(=N)N)C(=O)N21", "EC50": "> 100"}
{"smiles": "N=C(N)NCCC[C@H]1C(=O)N(CCc2ccc3ccccc3c2)C[C@H]2SC[C@@H](CCNC(=N)N)C(=O)N21", "EC50": "> 100"}
{"smiles": "N=C(N)NCCCC[C@H]1C(=O)N(CCc2ccc3ccccc3c2)C[C@@H]2SC[C@H](CCCNC(=N)N)C(=O)N21", "EC50": "> 100"}
{"smiles": "N=C(N)NCCCC[C@H]1CS[C@H]2CN(CCc3ccc4ccccc4c3)C(=O)[C@H](CCCNC(=N)N)N2C1=O", "EC50": "> 100"}
{"smiles": "N=C(N)NCCCC1CSC2CN(Cc3ccc4ccccc4c3)C(=O)[C@H](CCCNC(=N)N)N2C1=O", "note": "(mixture of isomers)", "EC50": "> 100"}
{"smiles": "N=C(N)NCCCC1CSC2CN(Cc3cccc4ccccc34)C(=O)[C@H](CCCNC(=N)N)N2C1=O", "note": "(mixture of isomers)", "EC50": "> 100"}
{"smiles": "N=C(N)NCCCC1CSC2CN(Cc3ccc4ccccc4c3Br)C(=O)[C@H](CCCNC(=N)N)N2C1=O", "note": "(mixture of isomers)", "EC50": 61}
{"target": "C-X-C chemokine receptor type 4 (Homo sapiens, UniProt P61073)", "experiment": "as §1", "assay_type": "functional, cell-based, COS-7", "conditions": "read-out: pEC50 (converted)", "units": {"EC50": "µM"}}
{"smiles": "N=C(N)NCCC[C@H]1C(=O)N(CCc2ccc3ccccc3c2)C[C@@H]2SC[C@H](CCNC(=N)N)C(=O)N21", "EC50": "< 100"}
{"smiles": "N=C(N)NCCCC[C@H]1C(=O)N(CCc2ccc3ccccc3c2)C[C@H]2SC[C@@H](CCNC(=N)N)C(=O)N21", "EC50": "< 100"}
{"smiles": "N=C(N)NCCCC[C@@H]1CS[C@@H]2CN(CCc3ccc4ccccc4c3)C(=O)[C@H](CCCNC(=N)N)N2C1=O", "EC50": "< 100"}
{"smiles": "N=C(N)NCCCC[C@H]1C(=O)N(CCc2ccc3ccccc3c2)C[C@@H]2SC[C@H](CCNC(=N)N)C(=O)N21", "EC50": "< 100"}
{"smiles": "N=C(N)NCCCC[C@H]1C(=O)N(CCc2ccc3ccccc3c2)C[C@H]2SC[C@@H](CCCNC(=N)N)C(=O)N21", "EC50": "< 100"}
{"smiles": "N=C(N)NCCCC[C@H]1CS[C@H]2CN(CCc3ccc4ccccc4c3)C(=O)[C@H](CCCNC(=N)N)N2C1=O", "EC50": "< 100"}
{"smiles": "N=C(N)NCCCC1CSC2CN(Cc3ccc4ccccc4c3)C(=O)[C@H](CCCNC(=N)N)N2C1=O", "note": "(mixture of isomers)", "EC50": "< 100"}
